Reference: US20060088475A1, “Self-immolative magnetic resonance imaging contrast agents sensitive to beta-glucuronidase” (Northwestern University, priority 2004, published 2006)
Blank lines part the entries; values can stand above or below the compound they belong to.

Assays:
[1] = T1 relaxivity at 60 MHz, 37° C. (inversion recovery, Gd(III) concentration by ICP-MS); type: physicochemical; details: for relaxivity r1 / increase in relaxivity on going from anion mimic to human serum: 37° C.; for decrease of relaxivity on addition of carbonate to the buffers: 24 mM carbonate added to MOPS or phosphate/BSA buffer; for decline of relaxivity in anion extracellular mimic: anion extracellular mimic (100 mM NaCl, 0.9 mM Na2HPO4, 30 mM NaHCO3, 0.13 mM sodium citrate, 2.3 mM sodium lactate) versus carbonate-containing buffers; for increase in relaxivity on going from anion mimic to human serum: male human blood serum versus extracellular anion mimic
Protocol: A 4 mM stock solution of either 1 or 2 in the appropriate buffer was diluted to give 500 μL each of seven approximate concentrations for each run: 0, 0.05, 0.15, 0.3, 0.5, 1.0, and 2.0 mM. The T1 of each concentration was determined using an inversion recovery pulse sequence with appropriate recycle delays on a Bruker mq60 Minispec. This instrument has a proton Larmor frequency of 60 MHz and operates at 37° C. The resulting curves were fit to a monoexponential function to obtain T10.10 μL of each sample was digested in concentrated nitric acid, diluted with water and analyzed for exact Gd(III) concentration using ICP-MS. The reciprocal of the longitudinal relaxation time was plotted against the concentration obtained from ICP-MS and fit to a straight line. All lines fit with R^2>0.998. This was performed for each buffer in duplicate. The buffers were all made to have the appropriate pH at 37° C. and remade if the pH had drifted more than 0.05 pH units upon storage. Anion mimic and carbonate containing buffers were made fresh daily.

[2] = phenol of the linker; cited from earlier work
[3] = Determination of q via Eu(III) phosphorescence lifetimes in H2O and D2O; type: physicochemical
Protocol: Determination of q: Europium(III) compound 4 was dissolved in H2O and D2O. The emission was monitored at 614 nm with excitation at 394 nm on a Hitachi F4500 fluorometer operating in Phosphorescence Lifetime (short) mode. The shortest lifetime measurable with this instrument is about 0.3 ms. Fifteen scans were averaged and fit to a monoexponential decay to give phosphorescent lifetimes. T(D2O)=1.274 ms; T (H2O)=0.527 ms. Using the equation of Supkowski and Horrocks (See, e.g., Supkowski and Horrocks, Inorg. Chim. Acta 2002, 340, 44-48), q=0.89 while the equation from Beeby et al. ^40generates q=1.04.

[4] = molecular target: T1, bovine liver β-glucuronidase (Bos taurus, UniProt A3KMY8); test: Enzyme catalyzed hydrolysis kinetics monitored by UV-visible; type: biochemical; details: for initial rate: 0.2 mM 1, 1.0 mg/ml enzyme, pH 7.4, 37° C.
T1 construct: β-glucuronidase isolated from bovine liver was chosen for the current studies; purchased Sigma G 0251; host or cells: bovine liver (tissue isolate)
T1 sequence (A3KMY8 1-652): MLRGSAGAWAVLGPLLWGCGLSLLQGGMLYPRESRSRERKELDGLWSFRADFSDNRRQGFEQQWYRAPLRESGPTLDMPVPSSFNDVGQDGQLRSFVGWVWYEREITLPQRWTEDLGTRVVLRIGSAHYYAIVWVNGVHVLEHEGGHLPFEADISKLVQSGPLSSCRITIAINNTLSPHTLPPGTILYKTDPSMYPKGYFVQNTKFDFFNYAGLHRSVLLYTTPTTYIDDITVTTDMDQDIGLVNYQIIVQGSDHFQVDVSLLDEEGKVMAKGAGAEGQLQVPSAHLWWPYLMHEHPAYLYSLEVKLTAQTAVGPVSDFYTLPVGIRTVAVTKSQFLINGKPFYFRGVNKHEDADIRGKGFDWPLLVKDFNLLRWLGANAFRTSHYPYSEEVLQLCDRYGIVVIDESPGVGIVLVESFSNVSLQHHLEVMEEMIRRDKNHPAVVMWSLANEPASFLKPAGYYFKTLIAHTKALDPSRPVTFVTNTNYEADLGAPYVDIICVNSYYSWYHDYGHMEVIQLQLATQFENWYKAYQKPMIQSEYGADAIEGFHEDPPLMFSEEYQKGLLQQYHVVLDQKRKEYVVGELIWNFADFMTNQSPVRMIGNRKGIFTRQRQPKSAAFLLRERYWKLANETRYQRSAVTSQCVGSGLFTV
Protocol: (§1) General: Bovine liver β-glucuronidase (Type B-1, Sigma G 0251) stability in several buffers was assayed by incubating the enzyme in the desired buffer and sampling its activity at various time intervals using the Sigma quality control assay for β-glucuronidase from bovine liver. It was determined that MOPS and anion mimic (See, e.g., Parker, D. In Crown Compounds: Towards Future Applications; Cooper, S. R., Ed.; VCH: New York, 1992, pp 51-67) engendered the enzyme with poor stability, while 100 mM phosphate with 0.01% (w/v) bovine serum albumin (BSA), pH=7.4 at 37° C. gave suitable stability (>2 h at 37° C. without loss of activity) provided the enzyme concentration was greater than 0.5 mg/ml. The enzyme was stable for at least 24 h at 37° C. at its native pH of 5.0 in 100 mM acetate buffer. All kinetics measurements were made with 0.2 mM substrate, 1, in 510 μL buffer with either 1.0 mg/ml enzyme (those buffers at pH=7.4) or 0.1 mg/ml enzyme (pH=5.0 acetate buffer). For all buffers except serum (due to its opacity), the kinetics were determined simultaneously by both UV-visible and magnetic resonance. The runs were all continuous assays that are known to give the best data (See, e.g., Marangoni, A. G. Enzyme kinetics: a modern approach; Wiley-Interscience: Hoboken, N.J., 2003; Copeland, R. A. Enzymes: a practical introduction to structure, mechanism, and data analysis; VCH Publishers: New York, N.Y., 1996). Each run was performed in triplicate and two controls, one without enzyme and one without substrate, were also measured. […] This trend is in the opposite direction of the kinetics runs that show an increase in T1.
UV-visible: The enzymatic hydrolysis of the pyranose from 1 and subsequent linker decomposition generates 4-hydroxy-3-nitrobenzyl alcohol. This compound has a maximum absorbance of 422 nm at pH=7.4. The molar absorptivity, E, was determined in triplicate from 0-0.2 mM, on an HP 8452A diode array spectrometer thermostated to 37° C. For 100 mM phosphate, 0.01% (w/v) BSA, pH=7.4 at 37° C. it is 2840±40 M^−1 cm^−1. For 100 mM phosphate, 24 mM NaHCO3, 0.01% (w/v) BSA, pH=7.4 at 37° C. it is 3010±50 M^−1 cm^−1. […] At pH=5.0 in acetate buffer, the maximum is at 354 nm. This overlaps with substrate, 1, absorption. The kinetics were sampled on the HP 8452A at 37° C. every 20 seconds for an hour. The initial rates for pH=7.4 buffers were determined through a linear fit of the first 10% change in absorbance. For the acetate buffer, only a half-life of conversion is reported. […] 4-hydroxy-3-nitrobenzyl alcohol was also present in the acetate runs as determined by LC-MS using 100 mM acetate pH=5 as solvent A.

[5] = molecular target: T1, bovine liver β-glucuronidase; test: LC-MS analysis of the enzyme reaction mixture; type: biochemical; details: phosphate buffer with 0.01% BSA, pH=7.4, 37° C., after 24 h
Protocol: LC-MS. […] The alcohol and 1 are readily distinguished by their absorption spectra (PDA), their appropriate negative mode ESI-MS patterns and through spiking with authentic compound. 2 was more difficult to detect but could be observed using fluorescence. The HPLC method was as follows: 0-10% B over 10 min, hold at 10% B for 15 min, with fluorescence using λex=271 nm, λem=314 nm.

[6] = molecular target: T1, bovine liver β-glucuronidase; test: Enzyme catalyzed hydrolysis kinetics monitored by bulk water T1 relaxation (magnetic resonance); type: biochemical
Protocol: as §1
(§2) Magnetic Resonance: T1 was determined at intervals of 2 minutes for the first 30 min and 4 minutes for the next 30 min using a saturation recovery (90-T-90) pulse sequence using the Bruker mq60 operating as detailed in the relaxivity section. This sequence is less accurate than the inversion recovery method, but gives faster results. The runs were performed in triplicate. The substrate-only control was also examined in this manner.

[7] = tested on: bovine liver β-glucuronidase; test: as above; type: biochemical; details: acetate buffer, over the course of an hour, no enzyme
Protocol: as §1, §2

[8] = 10 mM MOPS, 100 mM NaCl, pH=7.4, 60 MHz
[9] = 10 mM pyridine, 100 mM sodium chloride buffer, pH=5.0, 60 MHz
[10] = 100 mM acetate buffer, pH=5.0, 60 MHz
[11] = 100 mM sodium phosphate, 0.01% (w/v) BSA, pH=7.4, 60 MHz

Compound: NCCN1CCN(CC(=O)[O-])CCN(CC(=O)[O-])CCN(CC(=O)[O-])CC1.[Gd+3] [Compound 2, Gadolinium(III)1-(2-aminoethyl)-4,7,10-(tris-carboxymethyl)-(1,4,7,10-tetrazaacyclododecane)]
relaxivity r1 [1, 8]: comparable to GdHP-DO3A
relaxivity r1 [1, 9]: 4.16 ± 0.09 mM⁻¹ s⁻¹
decrease of relaxivity on addition of carbonate to the buffers ([1]; pH=7.4): remained the same within error
relaxivity r1 [1, 10]: 2.16 ± 0.04 mM⁻¹ s⁻¹
relaxivity r1 [1, 11]: 3.68 mM⁻¹ s⁻¹
decline of relaxivity in anion extracellular mimic [1]: 6%
increase in relaxivity on going from anion mimic to human serum [1]: 150%

Compound: O=[N+]([O-])c1cc(CO)ccc1O [4-hydroxy-3-nitrobenzyl alcohol]
pKa [2]: about 7.5

Compound: CC(O)CN1CCN(CC(=O)[O-])CCN(CC(=O)[O-])CCN(CC(=O)[O-])CC1.[Gd+3] (stereo not drawn) [GdHP-DO3A, reference compound]
relaxivity r1 [1, 8]: 2.99 ± 0.44 mM⁻¹ s⁻¹

phosphorescent lifetime T(D2O) ([3]; D2O, excitation 394 nm, emission 614 nm): 1.274 ms
q (inner-sphere water molecules) ([3]; Eu(III) fluorescence, absence of buffer salts): 1
phosphorescent lifetime T (H2O) ([3]; H2O, excitation 394 nm, emission 614 nm): 0.527 ms
q (inner-sphere water molecules) ([3]; equation from Beeby et al.): 1.04
q (inner-sphere water molecules) ([3]; equation of Supkowski and Horrocks): 0.89
Compound: Europium(III) 1-(4-(2-(1-(4,7,10-tris-carboxymethyl-(1,4,7,10-tetrazaacyclododecyl)))-ethylcarbamoyloxymethyl)-2-nitrophenyl)-β-D-glucopyronuronate [Compound 4]

initial rate ([4]; phosphate/BSA (100 mM sodium phosphate, 0.01% BSA)): 158 ± 34 nmol product/h/mg enzyme
initial rate ([4]; phosphate/BSA/carbonate (24 mM NaHCO3)): 148 ± 26 nmol product/h/mg enzyme
time to complete conversion ([4]; pH=5 acetate buffer, enzyme concentration 10% of that at pH=7.4): ≤ 45 min
initial rate at pH=7.4 relative to standard substrate 4-methylumbelliferyl-β-D-glucuronide at pH=5.5 ([4]; pH=7.4 versus literature pH=5.5 data): roughly 8%
presence of substrate in reaction mixture by LC/MS [5]: disappeared
increase in T1 during enzyme incubation (levels off) ([6]; 0.2 mM 1, 0.1 mg/ml β-glucuronidase, acetate buffer pH=5.0, around 35 min): 15%
increase in T1 during enzyme incubation ([6]; 0.2 mM 1, 1.0 mg/ml β-glucuronidase, human serum, over one hour, curve not saturated): 14%
decrease in T1 of substrate control without enzyme [7]: 2%
Compound: O=C([O-])CN1CCN(CCNC(=O)OCc2ccc(O[C@@H]3O[C@H](C(=O)O)[C@@H](O)[C@H](O)[C@H]3O)c([N+](=O)[O-])c2)CCN(CC(=O)[O-])CCN(CC(=O)[O-])CC1.[Gd+3] [Compound 1, Gadolinium(III) 1-(4-(2-(1-(4,7,10-tris-carboxymethyl-(1,4,7,10-tetrazaacyclododecyl)))-ethylcarbamoyloxymethyl)-2-nitrophenyl)-β-D-glucopyronuronate]
relaxivity r1 [1, 8]: higher value
relaxivity r1 [1, 9]: 3.89 ± 0.05 mM⁻¹ s⁻¹
decrease of relaxivity on addition of carbonate to the buffers ([1]; pH=7.4): 20-30%
relaxivity r1 [1, 10]: 2.53 ± 0.01 mM⁻¹ s⁻¹
relaxivity r1 [1, 11]: 4.73 mM⁻¹ s⁻¹
decrease in relaxivity between the pure compounds (1 to 2) ([1]; acetate buffer, pH=5.0): 15%
increase in relaxivity from 1 to 2 (dark to bright change) ([1]; anion extracellular mimic): 17%
decline of relaxivity in anion extracellular mimic [1]: 22%
relaxivity differential, 1 brighter than 2 ([1]; human serum): 27%
increase in relaxivity on going from anion mimic to human serum [1]: 240%
drop in relaxivity upon going from 1 to 2 ([1]; phosphate/BSA buffer (same trend as MOPS), pH=7.4): 20%
